Legend:
fowl plague viral NA = details: result in words; cited from earlier work
[1] = biological target: Influenza A (H1N1) neuraminidase (Influenza A virus, UniProt P03468); test: biochemical
[2] = biological target: Influenza B neuraminidase (Influenza B virus, UniProt P03474); test: biochemical
[3] = biological target: Influenza A (H3N2) neuraminidase (Influenza A virus, UniProt P03482); test: biochemical
V cholera NA = V cholera NA (Vibrio cholerae serotype O1, UniProt P0C6E9); details: after 22 hrs; cited from earlier work
C. perfrinqens NA = details: after 22 hrs; cited from earlier work
A. ureafaciens NA = details: after 22 hrs; cited from earlier work

Chain of Influenza A (H1N1) neuraminidase (P03468 whole entry, looked up): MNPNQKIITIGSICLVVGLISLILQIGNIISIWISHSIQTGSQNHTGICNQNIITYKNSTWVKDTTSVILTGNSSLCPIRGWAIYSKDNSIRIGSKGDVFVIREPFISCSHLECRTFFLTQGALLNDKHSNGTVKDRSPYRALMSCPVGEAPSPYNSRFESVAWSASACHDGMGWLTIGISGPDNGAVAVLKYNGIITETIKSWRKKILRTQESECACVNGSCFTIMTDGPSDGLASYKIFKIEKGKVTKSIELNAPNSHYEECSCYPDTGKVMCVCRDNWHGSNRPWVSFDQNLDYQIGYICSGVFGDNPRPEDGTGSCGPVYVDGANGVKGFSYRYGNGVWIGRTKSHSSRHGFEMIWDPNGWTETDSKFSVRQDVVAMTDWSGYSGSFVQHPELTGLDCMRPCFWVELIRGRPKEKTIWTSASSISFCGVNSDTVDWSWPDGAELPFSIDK
Chain of Influenza B neuraminidase (P03474 whole entry, looked up): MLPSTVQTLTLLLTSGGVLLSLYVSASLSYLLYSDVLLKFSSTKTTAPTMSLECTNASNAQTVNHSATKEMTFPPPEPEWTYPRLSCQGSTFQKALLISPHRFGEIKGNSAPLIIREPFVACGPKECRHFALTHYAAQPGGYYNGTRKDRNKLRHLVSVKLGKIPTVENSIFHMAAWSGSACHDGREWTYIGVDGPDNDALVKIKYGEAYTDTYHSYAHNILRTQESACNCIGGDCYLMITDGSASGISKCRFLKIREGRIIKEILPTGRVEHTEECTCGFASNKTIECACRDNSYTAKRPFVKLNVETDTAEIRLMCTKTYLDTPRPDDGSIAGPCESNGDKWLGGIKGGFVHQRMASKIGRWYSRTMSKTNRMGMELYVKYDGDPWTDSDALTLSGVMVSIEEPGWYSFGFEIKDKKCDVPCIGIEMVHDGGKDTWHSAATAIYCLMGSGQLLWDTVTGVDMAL
Chain of V cholera NA (P0C6E9 25-781 limits assumed): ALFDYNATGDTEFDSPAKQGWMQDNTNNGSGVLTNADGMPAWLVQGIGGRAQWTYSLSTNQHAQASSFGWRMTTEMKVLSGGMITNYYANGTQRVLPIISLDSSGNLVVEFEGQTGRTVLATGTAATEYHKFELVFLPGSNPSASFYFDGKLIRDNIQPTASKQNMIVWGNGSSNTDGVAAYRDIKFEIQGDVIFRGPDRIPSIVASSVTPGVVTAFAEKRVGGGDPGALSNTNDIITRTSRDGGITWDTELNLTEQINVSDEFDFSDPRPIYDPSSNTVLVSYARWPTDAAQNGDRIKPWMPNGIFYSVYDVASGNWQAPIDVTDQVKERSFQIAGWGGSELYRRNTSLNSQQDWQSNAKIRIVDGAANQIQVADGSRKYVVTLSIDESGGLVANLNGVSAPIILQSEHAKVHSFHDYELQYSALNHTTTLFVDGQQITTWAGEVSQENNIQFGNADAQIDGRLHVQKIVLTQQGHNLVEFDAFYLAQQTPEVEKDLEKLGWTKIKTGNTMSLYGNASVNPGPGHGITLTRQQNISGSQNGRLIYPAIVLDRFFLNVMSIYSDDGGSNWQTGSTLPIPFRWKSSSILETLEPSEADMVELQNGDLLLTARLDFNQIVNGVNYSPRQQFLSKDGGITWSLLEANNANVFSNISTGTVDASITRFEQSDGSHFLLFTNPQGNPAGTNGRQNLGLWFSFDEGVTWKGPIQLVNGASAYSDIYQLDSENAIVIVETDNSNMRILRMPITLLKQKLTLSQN
Chain of Influenza A (H3N2) neuraminidase (P03482 whole entry, looked up): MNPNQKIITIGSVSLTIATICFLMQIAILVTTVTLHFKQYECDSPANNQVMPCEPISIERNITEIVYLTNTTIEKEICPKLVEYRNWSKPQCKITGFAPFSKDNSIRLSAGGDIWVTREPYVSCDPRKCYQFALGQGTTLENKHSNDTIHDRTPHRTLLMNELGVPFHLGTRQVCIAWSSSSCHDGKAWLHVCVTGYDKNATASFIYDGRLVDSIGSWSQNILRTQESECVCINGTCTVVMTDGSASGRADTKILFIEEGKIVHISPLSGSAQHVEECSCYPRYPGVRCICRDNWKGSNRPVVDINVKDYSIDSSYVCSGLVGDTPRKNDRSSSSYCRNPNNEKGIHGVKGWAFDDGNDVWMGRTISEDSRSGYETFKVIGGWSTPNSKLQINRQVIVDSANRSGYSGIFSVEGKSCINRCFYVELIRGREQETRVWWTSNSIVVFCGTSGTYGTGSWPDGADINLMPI

## CO[C@H]1CC(O)(C(=O)O)O[C@@H]([C@H](O)[C@H](O)CO)[C@@H]1NC(C)=O (stereo partly drawn) [4-methoxy Neu5Ac, 4-methoxy-N-acetylneuraminic acid]
Fowl plague viral NA
  substrate quality: excellent substrate

## CC(=O)N[C@H]1[C@H]([C@H](O)[C@H](O)CO)OC(O)(C(=O)O)C[C@@H]1O (stereo partly drawn) [Neu5Ac, N-acetylneuraminic acid]
[1]
  Ki: 626 µM

## CC(=O)N[C@@H]1CCC(O)(C(=O)O)O[C@H]1[C@H](O)[C@H](O)CO (stereo partly drawn) [4-deoxy Neu5Ac, 4-deoxy-N-acetylneuraminic acid]
[2]
  Ki: 1050 µM
[1]
  Ki: 998 µM
[3]
  Ki: 2200 µM

## COC1(C(=O)O)CCC(NC(C)=O)C(C(O)C(O)CO)O1 (stereo not drawn) [methyl-alpha-glycoside of 4-deoxy Neu5Ac]
Fowl plague viral NA
  substrate quality: good substrate

## CC(=O)NC1C(O)CC(OCc2ccccc2)(C(=O)O)OC1C(O)C(O)CO [benzyl-alpha-glycosides of N-acetyl-4-epi-D-neuraminic acid]
V cholera NA
  substrate cleaved: 11%
C. perfrinqens NA
  substrate cleaved: 100%
A. ureafaciens NA
  substrate cleaved: 50%
